Source: patent US11980209B2, “Consumables” (GIVAUDAN SA, priority 2007, dated 2024)

Key:
[1] = system: perceived sweet taste (sweet sensitive panelists); experiment: Ranking test with R-index, isointensity of 15 and 20 ppm HDG in water (Example 1d); assay type: in vivo, human; details: for R-index: critical values 37.26-62.74%
Procedure: All examples were performed with sweet sensitive panelists able to detect at least 0.5% of sucrose or less, unless stated otherwise. The concentration detectable by the average consumer will be higher. The results were obtained using 20 panelists in two replications.
The sucrose concentration that tastes isointense in sweetness to HDG was determined using samples of 15 ppm and 20 ppm, each of which was directly compared to a sucrose sample (sucrose solutions of 0.5%, 1%, 1.5% and 2% concentration). Fifteen milliliters of each blinded sample was presented, at room temperature, in random order to 20 sweet sensitive panelists. In two replications (over 1 session), panelists were asked to rank the solutions, from least sweet to most sweet. The data was subjected to an R-index analysis.

[2] = system: perceived sweet taste (panel); experiment: Small panel ranking of 5-20 ppm HDG in water (Example 1d); assay type: in vivo, human; details: for Rank and taste: rank from least sweet to most sweet
Procedure: Further three small panel testings were performed. HDG samples were prepared in concentrations of 5 ppm, 10 ppm, 15 ppm, and 20 ppm in water. All the samples were coded (presented blind) and given to the panel in random order. The panel was also presented with sucrose solutions for comparison. The panel was asked to taste each sample and rank the samples from the least sweet to most sweet.

[3] = system: perceived sweet taste (sweet sensitive panelists); experiment: Ranking test with R-index, isointensity of 20 ppm HDG in 7% sucrose (Example 2b); assay type: in vivo, human; details: for R-index: critical values 37.11-62.89%
From the text: Panels consisted of 20 sweet sensitive subjects and samples were presented in 2 replications over 1 session. Panelists were presented with 7%, 8%, 9% and 10% sucrose solutions in water and a fifth sample of 20 ppm HDG in 7% sucrose in random order. Subjects were asked to rank the samples from low to high with respect to perceived sweet taste.

[4] = system: perceived sweetness (sweet sensitive panelists); experiment: Ranking test with R-index, sweetness enhancement by 10 ppm HDG in 7% sucrose (Example 12); assay type: in vivo, human; details: for R-index: critical value 37.1 to 62.9%
Procedure: The degree of sweetness enhancement of HDG was tested by determining the isointensity of the HDG-enhanced samples in comparison to sucrose samples. The samples contained 10 ppm HDG in 7% sucrose (HDG-10), and various sucrose solutions of different concentration in water (7%, 8%, 9%, and 10%).
15 ml of each sample was presented at room temperature and in random order to 20 sweet sensitive panelists. In two replications over 1 session, panelists were asked to compare and rank the samples from least sweet to most sweet. The critical value indicates the range wherein the difference of two samples is non-significant.

[5] = system: perceived sweetness (panelists); experiment: Sweetness of HDG in a cola beverage (Example 14); assay type: in vivo, human; details: 20 ppm HDG in cola beverage sweetened with 7% sucrose
From the text: 20 ppm of HDG in a cola beverage sweetened with 7% sucrose was compared to control samples (cola without HDG and sweetened with 7 or 9% sucrose) by 9 panelists.
Panelists were instructed to taste and compare the samples in their sweetness intensity and profile.

[6] = system: perceived sweet taste (sweet sensitive panelists); experiment: Ranking test of 2 ppm NHDC in water (Example 7); assay type: in vivo, human
[7] = system: sucrose sweetness; details: NHDC at its sweetness detection threshold; Kroeze et al., Chem. Senses 2000; cited from earlier work
[8] = system: perceived sweetness (sweet sensitive panelists); experiment: Determined isointensities to sucrose solutions of the optional enhancers; assay type: in vivo, human
Procedure: The sweetness detection threshold for trilobatin, HDG and optional enhancers were determined by the applicant.
The sweetness detection threshold varies somewhat in different individuals. For example, some individuals are able to detect the sweetness of sucrose in a very low concentration of 0.4%, others need at least 0.7%, or at least 1% or even more. All examples were performed with sweet sensitive panelists able to detect at least 0.5% of sucrose or less. The concentration detectable by the average consumer will therefore be higher.

[9] = system: perceived sweetness (sweet sensitive panelists); experiment: Sweetness rating on generalized labeled magnitude scale (Example 6); assay type: in vivo, human; details: 1% sucrose in water, test run 3
From the text: Further, panelists were asked to rate each presented sample for sweetness using the generalized labeled magnitude scale (0=no sweetness; […] of any kind). The rating data was compared using the paired t-test.

[10] = 10 ppm HDG in 7% sucrose vs 7% sucrose
[11] = 10 ppm HDG in 7% sucrose vs 8% sucrose
[12] = 10 ppm HDG in 7% sucrose vs 9% sucrose
[13] = 10 ppm HDG in 7% sucrose vs 10% sucrose

## COc1ccc(CCC(=O)c2c(O)cc(O[C@@H]3O[C@H](CO)[C@@H](O)[C@H](O)[C@H]3O)cc2O)cc1O [HDG, 1-[4-(-D-glucopyranosyloxy)-2,6-dihydroxyphenyl]-3-(3-hydroxy-4-methoxyphenyl)-1-propanone]
[1]; 15 ppm HDG in water vs 0.5% sucrose
  R-index: 85%
[1]; 15 ppm HDG in water vs 1.0% sucrose
  R-index: 31%
[1]; 15 ppm HDG in water vs 1.5% sucrose
  R-index: 10%
[1]; 15 ppm HDG in water vs 2.0% sucrose
  R-index: 1%
[1]; 15 ppm in water vs 0.5% sucrose solution
  sample sweetness (HDG, 15 ppm): sweeter
[1]; 15 ppm in water vs 1.0% sucrose solution
  sample sweetness (HDG, 15 ppm): less sweet
[1]; 15 ppm in water vs 1.5% sucrose solution
  sample sweetness (HDG, 15 ppm): less sweet
[1]; 15 ppm in water vs 2.0% sucrose solution
  sample sweetness (HDG, 15 ppm): less sweet
[1]; 20 ppm HDG in water vs 0.5% sucrose
  R-index: 92%
[1]; 20 ppm HDG in water vs 1.0% sucrose
  R-index: 51%
[1]; 20 ppm HDG in water vs 1.5% sucrose
  R-index: 33%
[1]; 20 ppm HDG in water vs 2.0% sucrose
  R-index: 4%
[1]; 20 ppm in water vs 0.5% sucrose solution
  sample sweetness (HDG, 20 ppm): Sweeter
[1]; 20 ppm in water vs 1.0% sucrose solution
  sample sweetness (HDG, 20 ppm): Isosweet
[1]; 20 ppm in water vs 1.5% sucrose solution
  sample sweetness (HDG, 20 ppm): Less sweet
[1]; 20 ppm in water vs 2.0% sucrose solution
  sample sweetness (HDG, 20 ppm): Less sweet
[2]; 5 ppm HDG in water
  isointensity to sucrose: 0% sucrose (water)
  Rank and taste: 1 - not sweet
[2]; 10 ppm HDG in water
  Rank and taste: 2 - very slightly sweet
[2]; 15 ppm HDG in water
  Rank and taste: 3 - slightly sweet
[2]; 20 ppm HDG in water
  isointensity to sucrose: 1 % sucrose
  Rank and taste: 4 - sweet
[2]; in water
  sweetness threshold of HDG detected by sweet sensitive individuals: about 10 ppm
[3]; 20 ppm HDG in 7% sucrose
  added sucrose sweetness intensity: 1.5-2 ° Brix
[3]; 20 ppm HDG in 7% sucrose vs 7% sucrose
  R-index: 94.8%
[3]; 20 ppm HDG in 7% sucrose vs 8% sucrose
  R-index: 62.6%
[3]; 20 ppm HDG in 7% sucrose vs 9% sucrose
  R-index: 46.0%
[3]; 20 ppm HDG in 7% sucrose vs 10% sucrose
  R-index: 6.8%
[3]; vs 7% sucrose solution
  sample sweetness (7% sucrose + 20 ppm HDG): Sweeter
[3]; vs 8% sucrose solution
  sample sweetness (7% sucrose + 20 ppm HDG): Isosweet
[3]; vs 9% sucrose solution
  sample sweetness (7% sucrose + 20 ppm HDG): Isosweet
[3]; vs 10% sucrose solution
  sample sweetness (7% sucrose + 20 ppm HDG): Less sweet
[4]; 10 ppm HDG in 7% sucrose
  added sucrose sweetness intensity: about 1 ° Brix
  expected isointensity to sucrose assuming a merely additive effect: 7.5%
  isointensity to sucrose: 8 % sucrose
[4]; [10]
  sweetness HDG sample: sweeter
  R-index: 75.2%
[4]; [11]
  sweetness HDG sample: isosweet
  R-index: 37.5%
[4]; [12]
  sweetness HDG sample: less
  R-index: 10.7%
[4]; [13]
  sweetness HDG sample: less
  R-index: 0.6%
[5]
  sweetness compared to 9% sucrose cola control: not as sweet
[5]; all 9 panelists
  sweetness compared to 7% sucrose cola control: significantly sweeter
[5]; similar to the sucrose controls in sweetness onset and duration
  taste profile: non-lingering

## COc1ccc(CCC(=O)c2c(O)cc(O[C@@H]3O[C@H](CO)[C@@H](O)[C@H](O)[C@H]3O[C@@H]3O[C@@H](C)[C@H](O)[C@@H](O)[C@H]3O)cc2O)cc1O [NHDC, Neohesperidin dihydrochalcone]
[6]; 2 ppm NHDC in water
  isointensity to sucrose: 0.5 % sucrose
[6]; 2 ppm NHDC in water vs 0.5% sucrose solution
  NHDC sample sweetness: isosweet
[6]; 2 ppm NHDC in water vs 1% sucrose solution
  NHDC sample sweetness: less sweet
[6]; 2 ppm NHDC in water vs 1% sucrose, critical values 35.39-64.61%
  R-index: 5%
[7]
  enhancement of sucrose sweetness: does not enhance sucrose sweetness

## C[C@@H]1O[C@@H](O[C@H]2[C@H](Oc3cc(O)c(C(=O)CCc4ccc(O)cc4)c(O)c3)O[C@H](CO)[C@@H](O)[C@@H]2O)[C@H](O)[C@H](O)[C@H]1O [naringin dihydrochalcone, 1-[4-[[2-O-(6-Deoxy-alpha-L-mannopyranosyl)-beta-D-glucopyranosyl]oxy]-2,6-dihydroxyphenyl]-3-(4-hydroxyphenyl)-1-propanone]
[8]; 45 ppm naringin dihydrochalcone
  isointensity to sucrose: 0.5 % sucrose
[8]; 60 ppm naringin dihydrochalcone
  isointensity to sucrose: 1.25 % sucrose

## C=C1C[C@@]23CC[C@H]4[C@@](C)(CCC[C@@]4(C)C(=O)O[C@@H]4O[C@H](CO)[C@@H](O)[C@H](O)[C@H]4O)[C@@H]2CC[C@]1(O[C@@H]1O[C@H](CO)[C@@H](O)[C@H](O[C@@H]2O[C@H](CO)[C@@H](O)[C@H](O)[C@H]2O)[C@H]1O[C@@H]1O[C@H](CO)[C@@H](O)[C@H](O)[C@H]1O)C3 [rebaudioside A, Rebaudioside A]
[8]; 20 ppm rebaudioside A
  isointensity to sucrose: 0.75 % sucrose

## C=C1C[C@@]23CC[C@H]4[C@@](C)(CCC[C@@]4(C)C(=O)O[C@@H]4O[C@H](CO)[C@@H](O)[C@H](O)[C@H]4O)[C@@H]2CC[C@]1(O[C@@H]1O[C@H](CO)[C@@H](O)[C@H](O)[C@H]1O[C@@H]1O[C@H](CO)[C@@H](O)[C@H](O)[C@H]1O)C3 [stevioside, Stevioside]
[8]; 30 ppm stevioside
  isointensity to sucrose: 0.5 % sucrose
[8]; 40 ppm stevioside
  isointensity to sucrose: 0.75 % sucrose

## OC[C@H]1O[C@@](CO)(O[C@H]2O[C@H](CO)[C@@H](O)[C@H](O)[C@H]2O)[C@@H](O)[C@@H]1O [sucrose, alpha-D-glucopyranosyl-(1→2)-beta-D-fructofuranose]
[9]
  sweetness rating, generalized labeled magnitude scale (0=no sweetness; 10=strongest imaginable sensation): 0.72 ± 0.06
